Data from patent US7241803B2, “Compounds for inhibition of HIV infection by blocking HIV entry” (New York Blood Center, priority 2002, dated 2007).
Values after ≈ are worked out from the molar mass of the structure shown.

Key:
[1] = test system: HIV-1 BCF02 (Group O, R5); assay: infection of PBMCs by primary HIV-1 isolate, p24 production; assay type: cell-based
Text: (§1) Culture media were changed every 3 days.

[2] = test system: HIV-1 93IN101 (clade C, R5); assay: as above; assay type: cell-based; settings: Primary 93IN101 (clade C, R5)
Text: as §1

[3] = test system: HIV-1 92US657 (clade B, R5); assay: as above; assay type: cell-based; settings: Primary 92US657 (clade B, R5)
Text: as §1

[4] = test system: HIV-1 94UG103 (clade A, X4R5); assay: as above; assay type: cell-based; settings: Primary 94UG103 (clade A, X4R5)
Text: as §1

MT-2 cells = settings: trypan blue, 2 hr
Protocol: Detection of in vitro cytotoxicity. The in vitro cytotoxicity of compounds for MT-2 cells was measured using trypan blue dye exclusion assay (41). Briefly, 100 μl of MT-2 cells (2×10^6/ml) were incubated with an equal volume of a compound diluted in culture media at graded concentrations at 37° C. for 2 hr. Ten microliters of cell suspension was transferred to a well of round-bottom plate and mixed with 10 μl of 0.04% trypan blue solution. The number of viable cells was counted using a hemocytometer under a microscope. The CC50 (the concentration for 50% cytotoxicity) values were calculated using the software Calcusyn (6).

N36/C34 mixture = N36/C34 mixture (Human immunodeficiency virus type 1 group M subtype B, UniProt P04578); settings: 100 μg/ml
Chain of N36/C34 mixture (P04578 546-581): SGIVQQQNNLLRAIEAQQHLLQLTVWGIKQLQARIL
Protocol: Circular dichroism (CD) spectroscopy. A test compound at graded concentrations was incubated with N36 in phosphate buffer (pH 7.2) at 37° C. for 30 min before addition of C34 in the same buffer at equimolar concentration. After incubation at 37° C. for 30 min, the mixture was cooled down and CD spectra of the mixture were measured on the J-715 CD spectrometer equipped with a thermoelectric temperature controller (Jasco, Japan). The instrument was calibrated using a two point calibration method with (+)-10-camphorsulfonic acid. The wavelength dependence of molar ellipticity (θ) was monitored at 0° C. by 5 scans in 1 nm increments with a sampling time of 10 seconds as previously described (12, 51). The CD signal at 222 nm was measured as a function of temperature. Thermal melts were performed in 2° C. steps, with 2 min of equilibration at each temperature and an acquisition time of 0.5 min. The midpoint of the thermal unfolding transition (Tm) was estimated from the maximum of the first derivative of the CD signal at 222 nm (1).

[5] = test system: H9/HIV-1IIIB cells cocultured with MT-2 cells; assay: syncytium-formation assay for screening HIV-1 fusion inhibitors; assay type: cell-based; settings: single dose 25 μg/ml
Text: Syncytium-formation assay for screening HIV-1 fusion inhibitors. […] HIV-1 induced syncytium formation was observed under an inverted microscope and scored as “−” (no syncytium was observed), “±” (about 50% syncytia were inhibited), and “+” (no syncytium formation was inhibited). The compounds scored with “−” and “±” were selected for further screening by ELISA for inhibitors against the gp41 six-helix bundle formation.

[6] = test system: MT-2 & H9/HIV-1IIIB (clade B, X4); assay: cell-cell fusion, dye transfer assay; assay type: cell-based; settings: MT-2 & H9/HIV-1IIIB (clade B, X4)
Protocol: Inhibition of cell-cell fusion. A dye transfer assay was used for detection of HIV-1 mediated cell fusion as previously described (21, 24, 34). H9/HIV-1IIIB cells were labeled with a fluorescent reagent, Calcein-AM (Molecular Probes, Inc., Eugene, Oreg.) and then incubated with MT-2 cells (ratio=1:5) in 96-well plates at 37° C. for 2 hrs in the presence or absence of compounds tested. The fused and unfused Cacein-labeled HIV-1-infected cells were counted under an inverted fluorescence microscope (Zeiss, Germany) with an eyepiece micrometer disc. The percentage of inhibition of cell fusion and the IC50 values were calculated as previously described (21).

[7] = test system: 5.25M7 & PBMCs/SF162 (clade B, R5)
Protocol: (§2) Inhibition of fusion between PBMCs infected by primary HIV-1 strains (X4 and R5 viruses) with CEMx174 5.25 M7 cells, which express CD4 and both coreceptors, CXCR4 and CCR5, was determined by a luciferase assay. Briefly, 50 μl of compound at graded concentration in triplicate was incubated with equal volume of PHA-stimulated PBMCs (1×10^5/ml) infected by corresponding primary HIV-1 strains, respectively, for 7 days as described above. After incubation at 37° C. for 30 min, 100 μl of CEMx174 5.25 M7 cells (2×10^5) were added and incubated at 37° C. for three days. The cells were collected, washed, and lysed with the lysing reagent included in the luciferase kit (Promega, Corp., Madison, Wis.). Aliquots of cell lysates were transferred to 96-well flat-bottom luminometer plates (Costar, Corning Inc., Corning, N.Y.), followed by addition of luciferase substrate (Promega). The luciferase activity was measured in the Ultra 384 luminometer (Tecan).

[8] = test system: 5.25M7 & PBMCs infected by 93BR020 (clade F, X4R5)
Protocol: as §2

[9] = test system: 5.25M7 & PBMCs infected by BCF02 (Group O, R5)
Protocol: as §2

[10] = test system: 5.25M7 & PBMCs infected by 93UG065 (clade D, X4R5)
Protocol: as §2

[11] = test system: 5.25M7 & PBMCs infected by 92UG657 (clade B, R5)
Protocol: as §2

[12] = test system: 5.25M7 & PBMCs infected by 93IN101 (clade C, R5)
Protocol: as §2

[13] = test system: 5.25M7 & PBMCs infected by CMU02 (clade E, R5)
Protocol: as §2

[14] = test system: 5.25M7 & PBMCs infected by 92UG029 (clade A, X4)
Protocol: as §2

[15] = test system: 5.25M7 & PBMCs infected by 93TH051 (clade E, X4R5)
Protocol: as §2

Structure (SMILES) | IC50 (μg/ml) for inhibition of p24 production [1] | IC50 (μg/ml) for inhibition of p24 production [2] | IC50 (μg/ml) for inhibition of p24 production [3] | IC50 (μg/ml) for inhibition of p24 production [4] | CC50 (MT-2 cells) | α-helicity of the N36/C34 mixture (N36/C34 mixture) | inhibition of HIV-1 mediated syncytium formation [5] | IC50 (μg/ml) for inhibition of cell-cell fusion [6] | IC50 (μg/ml) for inhibition of cell-cell fusion [7] | IC50 (μg/ml) for inhibition of cell-cell fusion [8] | IC50 (μg/ml) for inhibition of cell-cell fusion [9] | IC50 (μg/ml) for inhibition of cell-cell fusion [10] | IC50 (μg/ml) for inhibition of cell-cell fusion [11] | IC50 (μg/ml) for inhibition of cell-cell fusion [12] | IC50 (μg/ml) for inhibition of cell-cell fusion [13] | IC50 (μg/ml) for inhibition of cell-cell fusion [14] | IC50 (μg/ml) for inhibition of cell-cell fusion [15]
Cc1ccc(C)n1-c1ccc(C(=O)O)c(O)c1 [NB-2] | 0.21 ± 0.12 µg/mL | 1.05 ± 0.23 µg/mL | 10.41 ± 1.88 µg/mL | 5.92 ± 0.06 µg/mL | 305.60 ± 5.04 µg/mL (≈ 1320 µM) | significantly disrupted | significantly inhibited | 1.53 ± 0.17 µg/mL | 4.86 ± 0.34 µg/mL | 1.66 ± 0.07 µg/mL | 0.93 ± 0.57 µg/mL | 6.07 ± 0.07 µg/mL | 6.64 ± 1.13 µg/mL | 3.27 ± 0.18 µg/mL | 8.14 ± 1.09 µg/mL | 2.50 ± 0.02 µg/mL | 1.76 ± 0.07 µg/mL
O=C(O)c1cc(-n2cccc2)ccc1Cl [NB-64] | 1.31 ± 0.90 µg/mL | 4.38 ± 0.19 µg/mL | 6.60 ± 1.80 µg/mL | 7.94 ± 0.96 µg/mL | >500 µg/mL | significantly disrupted | significantly inhibited | 2.02 ± 0.19 µg/mL | 20.86 ± 0.20 µg/mL | 2.24 ± 0.31 µg/mL | 10.30 ± 5.90 µg/mL | 20.77 ± 1.94 µg/mL | 39.00 ± 5.27 µg/mL | 18.26 ± 0.01 µg/mL | 4.89 ± 1.08 µg/mL | 2.21 ± 0.56 µg/mL | 12.72 ± 0.32 µg/mL
